# Test results published in the NIST ThermoML archive (doi:10.1021/je700063c).
# ± gives the expanded uncertainty stated by the source.
# Settings: Liquid; for mass density: 298.15 K, 101.33 kPa, Pycnometric method; for Normal boiling temperature: Distillation
mass density [kg/m3],Normal boiling temperature [°C],SMILES
802.4 ± 0.7,99.46 ± 0.1,CCC(C)O (stereo not given) [butan-2-ol]
797.8 ± 0.7,107.77 ± 0.1,CC(C)CO [2-methyl-1-propanol]
805.8 ± 0.7,–,CCCCO [butan-1-ol]
